Source: patent publication US20190381086A1, “INHIBITION OF NEDDYLATION USING GLYCYL-tRNA SYNTHETASE INHIBITORS” (The Scripps Research Institute, priority 2015, published 2019)

Columns and labels:
[1] = tested on: KM12; format: cell-based; settings: KM12, Colon Cancer
[2] = tested on: T-47D; format: cell-based; settings: Breast Cancer
[3] = tested on: HCT-15; test: NCI 60 Cell One-Dose Screen; format: cell-based, human; settings: HCT-15, Colon Cancer; single dose 10^-5 M
[4] = tested on: SK-MEL-28; format: cell-based; settings: SK-MEL-28, Melanoma
[5] = tested on: HT29; test: NCI 60 Cell One-Dose Screen; format: cell-based, human; settings: HT29, Colon Cancer; single dose 10^-5 M
[6] = tested on: ACHN; test: NCI 60 Cell One-Dose Screen; format: cell-based, human; settings: Renal Cancer, single dose 10^-5 M
[7] = tested on: DU-145; format: cell-based; settings: DU-145, Prostate Cancer
[8] = tested on: SK-MEL-2; format: cell-based; settings: SK-MEL-2, Melanoma
[9] = tested on: NCI-H522; format: cell-based; settings: NCI-H522, Non-Small Cell Lung Cancer
[10] = mouse, in vivo
Procedure: (§1) GlySA (DMSO stock solution diluted by saline) were administrated to three month old female BALB CJ mice via tail vein injections. […] The GlySA concentration tested were 0.4 mg/kg (10 μM), 2.0 mg/kg (50 μM), 4.0 mg/kg (100 μM). N=3 for each group.
as §1, with “Animal experiments were also performed to study the use of GlySA to treat cancer. A maximum tolerant dosage assay of GlySA was conducted. GlySA (DMSO” for “GlySA (DMSO”

[11] = tested on: UACC-257; test: NCI 60 Cell One-Dose Screen; format: cell-based, human; settings: UACC-257, Melanoma; single dose 10^-5 M
[12] = tested on: 786-0; format: cell-based; settings: 786-0, Renal Cancer
[13] = tested on: RPMI-8226; test: NCI 60 Cell One-Dose Screen; format: cell-based, human; settings: RPMI-8226, Leukemia; single dose 10^-5 M
[14] = tested on: OVCAR-3; test: NCI 60 Cell One-Dose Screen; format: cell-based, human; settings: OVCAR-3, Ovarian Cancer; single dose 10^-5 M
[15] = tested on: MDA-MB-468
[16] = tested on: UACC-62; test: NCI 60 Cell One-Dose Screen; format: cell-based, human; settings: UACC-62, Melanoma; single dose 10^-5 M
[17] = tested on: MCF7; format: cell-based; settings: MCF7, Breast Cancer
[18] = tested on: T-47D; test: NCI 60 Cell One-Dose Screen; format: cell-based, human; settings: Breast Cancer, single dose 10^-5 M
[19] = tested on: SK-OV-3; test: NCI 60 Cell One-Dose Screen; format: cell-based, human; settings: SK-OV-3, Ovarian Cancer; single dose 10^-5 M
[20] = tested on: HCT-116; format: cell-based; settings: HCT-116, Colon Cancer
[21] = tested on: HOP-62; format: cell-based; settings: HOP-62, Non-Small Cell Lung Cancer
[22] = tested on: LOX IMVI; format: cell-based; settings: Melanoma
[23] = tested on: MALME-3M; format: cell-based; settings: Melanoma
[24] = tested on: HCT-15; format: cell-based; settings: HCT-15, Colon Cancer
[25] = tested on: OVCAR-5; test: NCI 60 Cell One-Dose Screen; format: cell-based, human; settings: OVCAR-5, Ovarian Cancer; single dose 10^-5 M
[26] = tested on: MCF7; test: NCI 60 Cell One-Dose Screen; format: cell-based, human; settings: MCF7, Breast Cancer; single dose 10^-5 M
[27] = tested on: KM12; test: NCI 60 Cell One-Dose Screen; format: cell-based, human; settings: KM12, Colon Cancer; single dose 10^-5 M
[28] = tested on: K-562; test: NCI 60 Cell One-Dose Screen; format: cell-based, human; settings: K-562, Leukemia; single dose 10^-5 M
[29] = tested on: CCRF-CEM; test: NCI 60 Cell One-Dose Screen; format: cell-based, human; settings: Leukemia, single dose 10^-5 M
[30] = tested on: CAKI-1; test: NCI 60 Cell One-Dose Screen; format: cell-based, human; settings: CAKI-1, Renal Cancer; single dose 10^-5 M
[31] = tested on: HS 578T; test: NCI 60 Cell One-Dose Screen; format: cell-based, human; settings: Breast Cancer, single dose 10^-5 M
[32] = Homo sapiens, read-out: LC50 (the source's name)

`NCC(=O)NS(=O)(=O)OC[C@H]1O[C@@H](n2cnc3c(N)ncnc32)[C@H](O)[C@@H]1O` [GlySA, glycylsulfamoyladenosine] showed a GI50 ([1]; Homo sapiens) of 3.24 µM, an LC50/GI50 [1] greater than 30.9 and an LC50/GI50 [2] greater than 42.7. The GI50 ([2]; Homo sapiens, T47D) was 2.34 µM, the CC50 ([2]; Homo sapiens, T47D, read-out: LC50 (the source's name)) was greater than 100 µM and the “Growth inhibition count (%)” value [3] was 11.42%. It also gave a GI50 ([4]; Homo sapiens) of 1.95 µM, a CC50 [4, 32] of 8.91 µM and an LC50/GI50 [4] of 4.6. For the same compound, the “Growth inhibition count (%)” value [5] was 6.002%, the “Growth inhibition count (%)” value [6] was 11.79% and the LC50/GI50 [7] was greater than 144.5. For the same compound, the GI50 ([7]; Homo sapiens) was 0.692 µM, the GI50 ([8]; Homo sapiens) was 2.24 µM and the CC50 [8, 32] was 10 µM. It also gave an LC50/GI50 [8] of 4.5, a GI50 ([9]; Homo sapiens) of 1.74 µM and a CC50 [9, 32] of 8.51 µM. The LC50/GI50 [9] was 4.9, the “survival of mice after four injections” value [10] was “all were alive” and the “Growth inhibition count (%)” value [11] was 27.43%. It also gave an LC50/GI50 [12] of 3.8, a GI50 ([12]; Homo sapiens) of 1.78 µM and a CC50 [12, 32] of 6.76 µM. For the same compound, the “Growth inhibition count (%)” value [13] was 18.04%, the “Growth inhibition count (%)” value [14] was 10.05% and the GI50 ([15]; Homo sapiens, MDA-MB-468) was 0.741 µM. The CC50 ([15]; Homo sapiens, MDA-MB-468, read-out: LC50 (μM)) was 7.59 µM, the LC50/GI50 ([15]; MDA-MB-468, Breast Cancer) was 10.2 and the “Growth inhibition count (%)” value [16] was 30.71%. It also gave a GI50 ([17]; Homo sapiens) of 2.82 µM, a CC50 [17, 32] greater than 100 µM and an LC50/GI50 [17] greater than 35.5. The “Growth inhibition count (%)” value [18] was 7.656%, the “Growth inhibition count (%)” value [19] was 6.281% and the LC50/GI50 [20] was greater than 31.6. For the same compound, the GI50 ([20]; Homo sapiens) was 3.16 µM, the CC50 [20, 32] was greater than 100 µM and the LC50/GI50 [21] was greater than 269.2. The GI50 ([21]; Homo sapiens) was 0.372 µM, the CC50 [21, 32] was greater than 100 µM and the GI50 ([22]; Homo sapiens) was 1.7 µM. It also gave a CC50 [22, 32] of 7.41 µM, an LC50/GI50 [22] of 4.4 and a GI50 ([23]; Homo sapiens) of 1.91 µM. For the same compound, the CC50 [23, 32] was 7.76 µM, the LC50/GI50 [23] was 4.1 and the LC50/GI50 [24] was 27.5. The GI50 ([24]; Homo sapiens) was 2.95 µM, the CC50 [24, 32] was 81.3 µM and the “Growth inhibition count (%)” value [25] was 0.2916%. For the same compound, the “Growth inhibition count (%)” value [26] was 8.271%, the “Growth inhibition count (%)” value [27] was 0.7347% and the “Growth inhibition count (%)” value [28] was 7.376%. For the same compound, the “Growth inhibition count (%)” value [29] was 21.68%, the “Growth inhibition count (%)” value [30] was 5.11% and the “Growth inhibition count (%)” value [31] was 16.07%.
